Laboratory results from PubChem BioAssay (NCI).
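Five concentrations, 48 hours, 96-well plates. At the TGI there is no net growth.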

Tests used:
Test in all cases: NCI anticancer screen, dose series, 48 h
IGROV1 ovarian = tested on: IGROV1 ovarian
LOX IMVI melanoma = tested on: LOX IMVI melanoma
EKVX NSCLC = tested on: EKVX NSCLC
COLO 205 colon = tested on: COLO 205 colon
NCI-H23 lung = tested on: NCI-H23 lung
A549 NSCLC = tested on: A549 NSCLC
U251 CNS = tested on: U251 CNS
MCF7 breast = tested on: MCF7 breast
SN12C renal = tested on: SN12C renal
CCRF-CEM leukemia = tested on: CCRF-CEM leukemia
CAKI-1 renal = tested on: CAKI-1 renal
HCC-2998 colon = tested on: HCC-2998 colon
RPMI-8226 leukemia = tested on: RPMI-8226 leukemia
HCT-15 colon = tested on: HCT-15 colon
MDA-MB-231 breast = tested on: MDA-MB-231 breast
K-562 leukemia = tested on: K-562 leukemia
OVCAR-3 ovarian = tested on: OVCAR-3 ovarian
DU-145 prostate = tested on: DU-145 prostate
786-0 renal = tested on: 786-0 renal
SR leukemia = tested on: SR leukemia

Row | Structure (SMILES) | TGI (IGROV1 ovarian) [µM] | TGI (LOX IMVI melanoma) [µM] | TGI (EKVX NSCLC) [µM] | TGI (COLO 205 colon) [µM] | TGI (NCI-H23 lung) [µM] | TGI (A549 NSCLC) [µM] | TGI (U251 CNS) [µM] | TGI (MCF7 breast) [µM] | TGI (SN12C renal) [µM] | TGI (CCRF-CEM leukemia) [µM] | TGI (CAKI-1 renal) [µM] | TGI (HCC-2998 colon) [µM] | TGI (RPMI-8226 leukemia) [µM] | TGI (HCT-15 colon) [µM] | TGI (MDA-MB-231 breast) [µM] | TGI (K-562 leukemia) [µM] | TGI (OVCAR-3 ovarian) [µM] | TGI (DU-145 prostate) [µM] | TGI (786-0 renal) [µM] | TGI (SR leukemia) [µM]
1 | Cc1cc(N(CCOS(C)(=O)=O)CCOS(C)(=O)=O)ccc1C=O | 39.2 | 58.7 | 22.9 | 4.39 | 36.9 | 45.7 | 67.4 | 32 | 11.6 | > 100 | 1.25 | 24.6 | > 100 | 71.8 | 94.6 | > 100 | 70.9 | – | – | –
2 | CC1CCC(C(=O)O)(C(Br)C(=O)O)CC1 (stereo unspecified) | > 100 | > 100 | > 100 | – | > 100 | > 100 | > 100 | – | > 100 | > 100 | > 100 | – | > 100 | > 100 | > 100 | > 100 | > 100 | > 100 | > 100 | > 100
3 | CC1=C[C@@H]2Cc3nc4cc(Cl)ccc4c(N)c3[C@H](C1)C2 | 8.14 | 22.3 | 13.3 | 2.92 | 22.3 | 34.9 | 37.7 | 23.3 | 29.6 | 74 | 17.4 | – | 13.4 | 24.3 | 28.7 | 14.3 | 24.2 | 27.3 | 19 | –
4 | NS(=O)(=O)c1cc2c(cc1Cl)NC(CCC(=O)O)=NS2(=O)=O | > 100 | > 100 | > 100 | > 100 | > 100 | > 100 | > 100 | > 100 | > 100 | – | > 100 | – | > 100 | > 100 | > 100 | > 100 | > 100 | > 100 | > 100 | –
5 | CC1=NS(=O)(=O)c2ccccc2N1 | > 100 | > 100 | > 100 | > 100 | > 100 | > 100 | > 100 | – | > 100 | > 100 | > 100 | > 100 | – | > 100 | – | > 100 | > 100 | – | > 100 | > 100
6 | O=C(O)CCC(=O)OC1N=C(c2ccccc2Cl)c2cc([N+](=O)[O-])ccc2NC1=O (stereo unspecified) | > 100 | > 100 | > 100 | – | > 100 | > 100 | > 100 | > 100 | > 100 | > 100 | > 100 | > 100 | – | > 100 | > 100 | – | > 100 | > 100 | > 100 | –
7 | CSc1nsc(-c2ccccc2)[s+]1 | > 100 | – | > 100 | > 100 | – | > 100 | > 100 | – | > 100 | > 100 | > 100 | > 100 | > 100 | > 100 | – | > 100 | > 100 | – | > 100 | > 100
8 | COc1cc(C2c3cc4c(cc3OC(NN)C2C)OCO4)cc(OC)c1OC (stereo unspecified) | > 100 | > 100 | > 100 | 13.9 | > 100 | > 100 | 16.2 | > 40 | > 100 | > 93 | > 90.6 | 3.55 | 67.7 | > 37.4 | > 91.1 | > 31.1 | 1.04 | > 100 | > 100 | –
9 | CN(C)C1(N(C)C)Oc2c(c(=O)n(C)c(=O)n2C)C(c2ccc(Br)cc2)C1(F)F (stereo unspecified) | – | > 100 | > 100 | > 100 | > 100 | > 100 | > 100 | > 100 | – | > 100 | > 100 | > 100 | > 100 | > 100 | > 100 | – | > 100 | > 100 | > 100 | –
10 | N#Cc1c(-c2ccccc2)/c(=C\Nc2ccc(F)cc2)c(=O)n2c1nc1ccccc12 | 87.3 | > 100 | > 100 | > 100 | > 100 | > 100 | > 100 | > 100 | 82.9 | > 100 | 39.9 | > 100 | 38.5 | > 100 | > 100 | – | 48.2 | – | 68.3 | –
11 | COc1cccc(CCCNC(=O)Cc2cc(OC)c(OC)cc2CO)c1 | > 100 | > 100 | > 100 | > 100 | > 100 | > 100 | > 100 | – | > 100 | > 100 | > 100 | > 100 | – | > 100 | > 100 | > 100 | > 100 | > 100 | > 100 | > 100
